Reference: US20220081387A1, “METHODS FOR PREPARING AMMONIUM TETRATHIOMOLYBDATE” (Alexion Pharmaceuticals, Inc., priority 2019, published 2022)

Assay: Long-term stability study of ATTM samples, determined by HPLC
Type: physicochemical
Experimental: ATTM Samples 1 and 2 were prepared essentially according to procedure in Example 1 starting with 12 kg of ammonium heptamolybdate. The isolated product was packed and stored immediately. Specifically, the samples were packaged corresponding to the packaging of the bulk material under argon in transparent anti-static polyethylene plastic bags, 90 10 10, 110 mm×170 mm, and the bags containing the samples were sealed with a plastic tie, and then subsequently packed in welded aluminium bags along with a drying agent in-between the two bags. Additional samples were packaged with ambient atmosphere in transparent anti-static polyethylene plastic bags, 90 10 10, 110 mm×170 mm. The bags containing the samples were sealed with a plastic tie, and then subsequently packed in welded aluminium bags along with a drying agent in-between the two bags.

[NH4+].[NH4+].[SH-].[SH-].[S]=[Mo]=[S] [Sample 2, ammonium tetrathiomolybdate]
(NH4)6Mo7O24 (5 °C, Air, 3 mo): <0.05 w/w %
ATTM (5 °C, Air, 3 mo): 98.6 w/w %
Dimer S6 (5 °C, Air, 3 mo): <0.05 w/w %
TM1 (5 °C, Air, 3 mo): <0.05 w/w %
TM2 (5 °C, Air, 3 mo): <0.05 w/w %
TM3 (5 °C, Air, 3 mo): 1.13 w/w %
(NH4)6Mo7O24 (5 °C, Air, 6 mo): <0.05 w/w %
ATTM (5 °C, Air, 6 mo): 97.9 w/w %
Dimer S6 (5 °C, Air, 6 mo): <0.05 w/w %
Insoluble materials (5 °C, Air, 6 mo): <0.1 w/w %
TM1 (5 °C, Air, 6 mo): <0.05 w/w %
TM2 (5 °C, Air, 6 mo): <0.05 w/w %
TM3 (5 °C, Air, 6 mo): 0.95 w/w %
(NH4)6Mo7O24 (5 °C, Air, Initial): <0.05 w/w %
ATTM (5 °C, Air, Initial): 98.8 w/w %
Dimer S6 (5 °C, Air, Initial): <0.05 w/w %
Insoluble materials (5 °C, Air, Initial): <0.1 w/w %
TM1 (5 °C, Air, Initial): <0.05 w/w %
TM2 (5 °C, Air, Initial): <0.05 w/w %
TM3 (5 °C, Air, Initial): 1.01 w/w %
(NH4)6Mo7O24 (5 °C, Ar, 3 mo): <0.05 w/w %
ATTM (5 °C, Ar, 3 mo): 99.0 w/w %
Dimer S6 (5 °C, Ar, 3 mo): <0.05 w/w %
TM1 (5 °C, Ar, 3 mo): <0.05 w/w %
TM2 (5 °C, Ar, 3 mo): <0.05 w/w %
TM3 (5 °C, Ar, 3 mo): 0.99 w/w %
(NH4)6Mo7O24 (5 °C, Ar, 6 mo): <0.05 w/w %
ATTM (5 °C, Ar, 6 mo): 98.2 w/w %
Dimer S6 (5 °C, Ar, 6 mo): <0.05 w/w %
Insoluble materials (5 °C, Ar, 6 mo): <0.1 w/w %
TM1 (5 °C, Ar, 6 mo): <0.05 w/w %
TM2 (5 °C, Ar, 6 mo): <0.05 w/w %
TM3 (5 °C, Ar, 6 mo): 1.03 w/w %
(NH4)6Mo7O24 (5 °C, Ar, Initial): <0.05 w/w %
ATTM (5 °C, Ar, Initial): 98.8 w/w %
Dimer S6 (5 °C, Ar, Initial): <0.05 w/w %
Insoluble materials (5 °C, Ar, Initial): <0.1 w/w %
TM1 (5 °C, Ar, Initial): <0.05 w/w %
TM2 (5 °C, Ar, Initial): <0.05 w/w %
TM3 (5 °C, Ar, Initial): 1.01 w/w %
(NH4)6Mo7O24 (−20 °C, Air, 3 mo): <0.05 w/w %
ATTM (−20 °C, Air, 3 mo): 99.4 w/w %
Dimer S6 (−20 °C, Air, 3 mo): <0.05 w/w %
TM1 (−20 °C, Air, 3 mo): <0.05 w/w %
TM2 (−20 °C, Air, 3 mo): <0.05 w/w %
TM3 (−20 °C, Air, 3 mo): 0.92 w/w %
(NH4)6Mo7O24 (−20 °C, Air, 6 mo): <0.05 w/w %
ATTM (−20 °C, Air, 6 mo): 98.2 w/w %
Dimer S6 (−20 °C, Air, 6 mo): <0.05 w/w %
Insoluble materials (−20 °C, Air, 6 mo): <0.1 w/w %
TM1 (−20 °C, Air, 6 mo): <0.05 w/w %
TM2 (−20 °C, Air, 6 mo): <0.05 w/w %
TM3 (−20 °C, Air, 6 mo): 1.13 w/w %
(NH4)6Mo7O24 (−20 °C, Air, Initial): <0.05 w/w %
ATTM (−20 °C, Air, Initial): 98.8 w/w %
Dimer S6 (−20 °C, Air, Initial): <0.05 w/w %
Insoluble materials (−20 °C, Air, Initial): <0.1 w/w %
TM1 (−20 °C, Air, Initial): <0.05 w/w %
TM2 (−20 °C, Air, Initial): <0.05 w/w %
TM3 (−20 °C, Air, Initial): 1.01 w/w %
(NH4)6Mo7O24 (−20 °C, Ar, 3 mo): <0.05 w/w %
ATTM (−20 °C, Ar, 3 mo): 99.1 w/w %
Dimer S6 (−20 °C, Ar, 3 mo): <0.05 w/w %
TM1 (−20 °C, Ar, 3 mo): <0.05 w/w %
TM2 (−20 °C, Ar, 3 mo): <0.05 w/w %
TM3 (−20 °C, Ar, 3 mo): 1.07 w/w %
(NH4)6Mo7O24 (−20 °C, Ar, 6 mo): <0.05 w/w %
ATTM (−20 °C, Ar, 6 mo): 98.2 w/w %
Dimer S6 (−20 °C, Ar, 6 mo): <0.05 w/w %
Insoluble materials (−20 °C, Ar, 6 mo): <0.1 w/w %
TM1 (−20 °C, Ar, 6 mo): <0.05 w/w %
TM2 (−20 °C, Ar, 6 mo): <0.05 w/w %
TM3 (−20 °C, Ar, 6 mo): 0.98 w/w %
(NH4)6Mo7O24 (−20 °C, Ar, Initial): <0.05 w/w %
ATTM (−20 °C, Ar, Initial): 98.8 w/w %
Dimer S6 (−20 °C, Ar, Initial): <0.05 w/w %
Insoluble materials (−20 °C, Ar, Initial): <0.1 w/w %
TM1 (−20 °C, Ar, Initial): <0.05 w/w %
TM2 (−20 °C, Ar, Initial): <0.05 w/w %
TM3 (−20 °C, Ar, Initial): 1.01 w/w %
